US20250034150A1, “BTK INHIBITORS” (BIOGEN MA INC., priority 2021, published 2025)
Counter-ions that a name gives are not always drawn. Like-named read-outs stand apart in the source and are kept apart here.

Tests used:
[1] = biological target: T1, BTK (Homo sapiens, UniProt Q06187); assay: In Vitro BTK Kinase Assay: Btk-PolyGAT-LS Assay; format: biochemical; settings: active BTK enzyme 0.25 nM, polyGAT 100 nM, 30 minutes, TRF readout; read-out: In Vitro BTK Kinase Assay IC50 Score
T1 construct: purchased Upstate 14-552
T1 sequence (Q06187 whole entry): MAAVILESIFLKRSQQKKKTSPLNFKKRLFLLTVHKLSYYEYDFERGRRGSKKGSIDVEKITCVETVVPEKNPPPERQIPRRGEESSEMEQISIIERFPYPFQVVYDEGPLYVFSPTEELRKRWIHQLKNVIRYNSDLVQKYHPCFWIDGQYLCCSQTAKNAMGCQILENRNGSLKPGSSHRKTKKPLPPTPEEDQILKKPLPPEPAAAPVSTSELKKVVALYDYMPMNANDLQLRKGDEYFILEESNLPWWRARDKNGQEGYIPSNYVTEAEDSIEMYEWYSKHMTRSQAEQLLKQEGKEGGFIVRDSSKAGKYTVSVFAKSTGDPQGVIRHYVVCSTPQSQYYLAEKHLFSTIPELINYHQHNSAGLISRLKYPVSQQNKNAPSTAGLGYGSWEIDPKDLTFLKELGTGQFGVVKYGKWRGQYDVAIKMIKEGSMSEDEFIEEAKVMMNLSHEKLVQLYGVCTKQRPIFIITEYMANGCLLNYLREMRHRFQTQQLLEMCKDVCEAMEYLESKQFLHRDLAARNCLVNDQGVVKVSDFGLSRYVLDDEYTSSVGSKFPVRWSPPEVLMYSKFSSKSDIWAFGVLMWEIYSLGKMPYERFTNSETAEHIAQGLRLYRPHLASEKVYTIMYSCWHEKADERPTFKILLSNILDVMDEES
In short: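 IC50 values came from a four-parameter fit, with DMSO controls as 100% activity and EDTA controls as 0%. The signal was TR-FRET from a Tb-PY20 antibody binding fluorescein-polyGAT (100 nM) phosphorylated by 0.25 nM BTK. Kinase reactions used 10 μM ATP, a 4-fold compound titration, and ran 30 minutes before EDTA stop.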

[2] = tested on: CD69 expression on CD19+ B cells in human whole blood; assay: In Vitro whole blood CD69 Assay; format: cell-based; settings: B-cell, read-out: In Vitro HWB CD69 Assay IC50 Score
In short: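 Heparinized healthy-donor human whole blood was preincubated with compound (0.1% DMSO) for 30 min at 37 °C. Stimulation used 0.1 µg/mL anti-IgD-dextran or 20 µg/mL rabbit F(ab′)2 anti-IgD for 18–22 h at 37 °C. CD69 on gated CD19+ B cells was then measured by flow cytometry.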

[3] = human heparinized whole blood, anti-human IgD stimulation overnight, CD19+ B cells, flow cytometry

SMILES	IC50 [1] [nM]	IC50 [2, 3] [nM]	IC50 ([2]; Homo sapiens) [nM]
Cn1cc(-c2cn3ncnc3c(N3CCC(CNC(=O)c4nnn(C(C)(C)C)n4)CC3)n2)cn1 [Example 72, 2-(tert-butyl)-N-((1-(6-(1-methyl-1H-pyrazol-4-yl)-[1,2,4]triazolo[1,5-a]pyrazin-8-yl)piperidin-4-yl)methyl)-2H-tetrazole-5-carboxamide]	1 to 10	1000 to 10000	–
Cn1cc(-c2cn3nccc3c(-c3ccc(CNC(=O)c4nnn(C(C)(C)C)n4)cc3)n2)cn1 [Example 3, 2-(tert-butyl)-N-(4-(6-(1-methyl-1H-pyrazol-4-yl)pyrazolo[1,5-a]pyrazin-4-yl)benzyl)-2H-tetrazole-5-carboxamide]	< 1	< 1000	–
Cn1cc(-c2cn3nccc3c(N3CCC(F)(CNC(=O)c4noc(C5(C)CC5)n4)CC3)n2)cn1 [Example 161, N-((4-fluoro-1-(6-(1-methyl-1H-pyrazol-4-yl)pyrazolo[1,5-a]pyrazin-4-yl)piperidin-4-yl)methyl)-5-(1-methylcyclopropyl)-1,2,4-oxadiazole-3-carboxamide trifluoroacetate]	1 to 10	1000 to 10000	–
Cc1c(CNC(=O)c2noc(C(C)(C)C)n2)ccc(-c2nc(-c3cnn(C)c3)cc3nccn23)c1F [Example 79, 5-(tert-butyl)-N-(3-fluoro-2-methyl-4-(7-(1-methyl-1H-pyrazol-4-yl)imidazo[1,2-c]pyrimidin-5-yl)benzyl)-1,2,4-oxadiazole-3-carboxamide]	< 1	< 1000	–
Cn1cc(-c2cn3nccc3c(N3CCC(CNC(=O)c4noc(C(C)(C)C)n4)CC3)n2)cn1 [Example 136, 5-(tert-butyl)-N-((1-(6-(1-methyl-1H-pyrazol-4-yl)pyrazolo[1,5-a]pyrazin-4-yl)piperidin-4-yl)methyl)-1,2,4-oxadiazole-3-carboxamide]	1 to 10	–	< 1000
CN1CCN(c2cn3nccc3c(-c3ccc(CNC(=O)c4cn(C(C)(C)C)nn4)c(F)c3)n2)CC1 [Example 128, 1-(tert-butyl)-N-(2-fluoro-4-(6-(4-methylpiperazin-1-yl)pyrazolo[1,5-a]pyrazin-4-yl)benzyl)-1H-1,2,3-triazole-4-carboxamide trifluoroacetate]	10 to 1000	1000 to 10000	–
COCCOc1cn2nccc2c(-c2ccc(CNC(=O)c3nc(C4(C)CC4)no3)c(C)c2)n1 [Example 133, N-(4-(6-(2-methoxyethoxy)pyrazolo[1,5-a]pyrazin-4-yl)-2-methylbenzyl)-3-(1-methylcyclopropyl)-1,2,4-oxadiazole-5-carboxamide]	1 to 10	1000 to 10000	–
Cn1cc(-c2cn3nccc3c(N3CCC(C)(CNC(=O)c4nnn(C(C)(C)C)n4)CC3)n2)cn1 [Example 43, 2-(tert-butyl)-N-((4-methyl-1-(6-(1-methyl-1H-pyrazol-4-yl)pyrazolo[1,5-a]pyrazin-4-yl)piperidin-4-yl)methyl)-2H-tetrazole-5-carboxamide]	10 to 1000	1000 to 10000	–
Cn1cc(-c2cc3nccn3c(-c3ccc(CNC(=O)c4noc(C5(C)CC5)n4)cc3)n2)cn1 [Example 60, N-(4-(7-(1-methyl-1H-pyrazol-4-yl)imidazo[1,2-c]pyrimidin-5-yl)benzyl)-5-(1-methylcyclopropyl)-1,2,4-oxadiazole-3-carboxamide]	1 to 10	1000 to 10000	–
Cc1cc(-c2cc(-c3cnn(C)c3)cn3nccc23)ccc1CNC(=O)c1cn(C(C)(C)C)nn1 [Example 66, 1-(tert-butyl)-N-(2-methyl-4-(6-(1-methyl-1H-pyrazol-4-yl)pyrazolo[1,5-a]pyridin-4-yl)benzyl)-1H-1,2,3-triazole-4-carboxamide]	< 1	< 1000	–
Cc1cc(-c2nc(N3CCN(C)CC3)cn3nccc23)ccc1CNC(=O)c1cn(C(C)(C)C)nn1 [Example 121, 1-(tert-butyl)-N-(2-methyl-4-(6-(4-methylpiperazin-1-yl)pyrazolo[1,5-a]pyrazin-4-yl)benzyl)-1H-1,2,3-triazole-4-carboxamide trifluoroacetate]	10 to 1000	1000 to 10000	–
Cn1cc(-c2cc(-c3ccc(CNC(=O)c4noc(C(C)(C)C)n4)c(F)c3)c3ccnn3c2)cn1 [Example 68, 5-(tert-butyl)-N-(2-fluoro-4-(6-(1-methyl-1H-pyrazol-4-yl)pyrazolo[1,5-a]pyridin-4-yl)benzyl)-1,2,4-oxadiazole-3-carboxamide]	< 1	–	< 1000
Cc1cc(-c2nc(N3CCN(C)CC3)cn3nccc23)ccc1CNC(=O)c1nnn(C(C)(C)C)n1 [Example 130]	1 to 10	1000 to 10000	–

More lines, main results first:

IC50 [1] [nM]	IC50 [2, 3] [nM]	SMILES	IC50 ([2]; Homo sapiens) [nM]
< 1	< 1000	Cn1cc(-c2cc(-c3ccc(CNC(=O)c4nc(C(C)(C)CF)no4)c(F)c3)c3ccnn3c2)cn1 [Example 71, 3-(1-fluoro-2-methylpropan-2-yl)-N-(2-fluoro-4-(6-(1-methyl-1H-pyrazol-4-yl)pyrazolo[1,5-a]pyridin-4-yl)benzyl)-1,2,4-oxadiazole-5-carboxamide]	–
1 to 10	1000 to 10000	Cc1cc(-c2nccn3nccc23)ccc1CNC(=O)c1noc(C(C)(C)C)n1 [Example 85, 5-(tert-butyl)-N-(2-methyl-4-(pyrazolo[1,5-a]pyrazin-4-yl)benzyl)-1,2,4-oxadiazole-3-carboxamide]	–
< 1	< 1000	Cn1cc(-c2cn3nccc3c(N3CC[C@@H](CNC(=O)c4noc(C(C)(C)C)n4)C(F)(F)C3)n2)cn1 (single isomer, unassigned) [Example 158]	–
1 to 10	1000 to 10000	Cn1cc(-c2cn3nccc3c(N3CC[C@H](CNC(=O)c4noc(C(C)(C)C)n4)[C@H](F)C3)n2)cn1 (single isomer, unassigned) [Example 155]	–
1 to 10	1000 to 10000	Cn1cc(-c2cn3nccc3c(-c3ccc(CNC(=O)c4cnn(C(C)(C)C)n4)cc3F)n2)cn1 [Example 113, 2-(tert-butyl)-N-(3-fluoro-4-(6-(1-methyl-1H-pyrazol-4-yl)pyrazolo[1,5-a]pyrazin-4-yl)benzyl)-2H-1,2,3-triazole-4-carboxamide]	–
< 1	< 1000	Cc1cc(-c2nc(-c3cnn(C)c3)cn3nccc23)ccc1CNC(=O)c1noc(C(C)(C)C)n1 [Example 80, 5-(tert-butyl)-N-(2-methyl-4-(6-(1-methyl-1H-pyrazol-4-yl)pyrazolo[1,5-a]pyrazin-4-yl)benzyl)-1,2,4-oxadiazole-3-carboxamide]	–
1 to 10	1000 to 10000	Cn1cc(-c2cn3nccc3c(-c3ccc(CNC(=O)c4ccn(C(C)(C)C)n4)c(F)c3)n2)cn1 [Example 11, 1-(tert-butyl)-N-(2-fluoro-4-(6-(1-methyl-1H-pyrazol-4-yl)pyrazolo[1,5-a]pyrazin-4-yl)benzyl)-1H-pyrazole-3-carboxamide]	–
< 1	< 1000	Cc1cc(-c2nc(-c3cnn(C)c3)cn3nccc23)ccc1CNC(=O)c1nnn(C(C)(C)C)n1 [Example 15, 2-(tert-butyl)-N-(2-methyl-4-(6-(1-methyl-1H-pyrazol-4-yl)pyrazolo[1,5-a]pyrazin-4-yl)benzyl)-2H-tetrazole-5-carboxamide]	–
< 1	< 1000	Cc1cc(-c2nc(-c3cnn(C)c3)cc3nccn23)ccc1CNC(=O)c1noc(C(C)(C)C)n1 [Example 78, 5-(tert-butyl)-N-(2-methyl-4-(7-(1-methyl-1H-pyrazol-4-yl)imidazo[1,2-c]pyrimidin-5-yl)benzyl)-1,2,4-oxadiazole-3-carboxamide]	–
1 to 10	1000 to 10000	Cc1cc(-c2nc(-c3cnn(C)c3)cn3nccc23)ccc1CN1CCN(CC(C)(C)C)CC1=O [Example 31, 1-(2-methyl-4-(6-(1-methyl-1H-pyrazol-4-yl)pyrazolo[1,5-a]pyrazin-4-yl)benzyl)-4-neopentylpiperazin-2-one]	–
1 to 10	< 1000	Cn1cc(-c2cn3nccc3c(-c3ccc(CNC(=O)c4noc(C(C)(C)C)n4)cc3F)n2)cn1 [Example 83, 5-(tert-butyl)-N-(3-fluoro-4-(6-(1-methyl-1H-pyrazol-4-yl)pyrazolo[1,5-a]pyrazin-4-yl)benzyl)-1,2,4-oxadiazole-3-carboxamide]	–
1 to 10	1000 to 10000	Cn1cc(-c2cn3nccc3c(-c3ccc(CNC(=O)c4coc(C(C)(C)C)n4)c(C(F)F)c3)n2)cn1 [Example 101, 2-(tert-butyl)-N-(2-(difluoromethyl)-4-(6-(1-methyl-1H-pyrazol-4-yl)pyrazolo[1,5-a]pyrazin-4-yl)benzyl)oxazole-4-carboxamide]	–
< 1	< 1000	Cn1cc(-c2cn3nccc3c(-c3ccc(CNC(=O)c4cnn(C(C)(C)C)n4)c(F)c3F)n2)cn1 [Example 92, 2-(tert-butyl)-N-(2,3-difluoro-4-(6-(1-methyl-1H-pyrazol-4-yl)pyrazolo[1,5-a]pyrazin-4-yl)benzyl)-2H-1,2,3-triazole-4-carboxamide]	–
10 to 1000	1000 to 10000	Cn1cc(-c2cn3nccc3c(-c3ccc(CNC(=O)c4ccn(C(C)(C)C)n4)cc3)n2)cn1 [Example 1, 1-(tert-butyl)-N-(4-(6-(1-methyl-1H-pyrazol-4-yl)pyrazolo[1,5-a]pyrazin-4-yl)benzyl)-1H-pyrazole-3-carboxamide]	–
